One data set has as its target T1, hERG (Homo sapiens, UniProt Q12809).
T1 construct: host or cells: T-REx HEK293
The experiment in a line: In-vitro hERG inhibition assay (manual patch clamp, hERG-T-REx HEK 293 cells). Format: cell-based. Here is the method:
In-Vitro hERG Inhibition Assay:
The hERG-T-REx™ HEK 293 cells (Invitrogen, K1236) were generated by transfecting the hERG coding sequence in the Tet-regulated expression vector pT-Rex-DEST30 into cells expressing the Tet-repressor (T-Rex™ HEK293), thereby producing cells that can be induced to express high level of hERG channels. The cells were cultured in a medium containing of 85% DMEM, 10% dialyzed FBS, 0.1 mM NEAA, 25 mM HEPES, 100 U/mL Penicillin-Streptomycin, 5 μg/mL Blasticidin, and 400 μg/mL Geneticin. The cells were split using TrypLE™ Express (Gibco, 12604) about three times a week and maintained between ˜40% to ˜80% confluence. Before the assay, the cells were induced with doxycycline (Sigma, D9891) at 1 μg/mL for 48 hours. On the experiment day, the induced cells were resuspended and plated onto the coverslips at 5×10^5 cells/per 6 cm cell culture dish prior to use. The hERG channel-mediated current was acquired by manual patch clamp recording systems equipped with amplifiers (HEKA, EPC10 and Molecular Devices, multiclamp 700B) and the inverted phase contrast microscope (Olympus, IX51/71/73). Glass pipettes were prepared by micropipette puller (Sutter, P97 and Narishige, PC-10) and qualified by the pipette resistance in the range of […]. The internal pipette solution was 140 mM KCl, 2 mM MgCl2, 10 mM EGTA, 5 mM MgATP, and 10 mM HEPES (pH adjusted to 7.35 with KOH), and the external buffer was 132 mM NaCl, 4 mM KCl, 3 mM CaCl2), 0.5 mM MgCl2, 11.1 mM glucose, and 10 mM HEPES (pH adjusted to 7.35 with NaOH). The whole-cell configuration was maintained with access resistance continuously monitored (<15 M[…]). The hERG current was elicited by depolarizing membrane to +30 mV for 4.8 sec, and the voltage was set back to −50 mV for 5.2 sec to remove the inactivation and measure the deactivating tail current. The maximum amount of tail current size was used to determine hERG current amplitude. To evaluate the hERG inhibition, the blank vehicle and test articles were perfused to cells under whole-cell recording configuration through the liquid perfusion system (ALA, VM8 gravity-flow delivery system). For dose response assay, test article was applied to the cells accumulatively from low to high concentrations. A positive control (Dofetilide) was used in the experiments to ensure the performance of the cells and operations as major part of method validation. The percentage hERG current inhibition was fitted against dose concentrations to build the dose-response curve and determine IC50.
(In general: The hERG channel carries a current that helps repolarise heart muscle cells.)

In a further data set the target is T2, ATM (Homo sapiens, UniProt Q13315).
T2 construct: endogenous in cells; host or cells: MCF-7
T2 sequence (Q13315 whole entry): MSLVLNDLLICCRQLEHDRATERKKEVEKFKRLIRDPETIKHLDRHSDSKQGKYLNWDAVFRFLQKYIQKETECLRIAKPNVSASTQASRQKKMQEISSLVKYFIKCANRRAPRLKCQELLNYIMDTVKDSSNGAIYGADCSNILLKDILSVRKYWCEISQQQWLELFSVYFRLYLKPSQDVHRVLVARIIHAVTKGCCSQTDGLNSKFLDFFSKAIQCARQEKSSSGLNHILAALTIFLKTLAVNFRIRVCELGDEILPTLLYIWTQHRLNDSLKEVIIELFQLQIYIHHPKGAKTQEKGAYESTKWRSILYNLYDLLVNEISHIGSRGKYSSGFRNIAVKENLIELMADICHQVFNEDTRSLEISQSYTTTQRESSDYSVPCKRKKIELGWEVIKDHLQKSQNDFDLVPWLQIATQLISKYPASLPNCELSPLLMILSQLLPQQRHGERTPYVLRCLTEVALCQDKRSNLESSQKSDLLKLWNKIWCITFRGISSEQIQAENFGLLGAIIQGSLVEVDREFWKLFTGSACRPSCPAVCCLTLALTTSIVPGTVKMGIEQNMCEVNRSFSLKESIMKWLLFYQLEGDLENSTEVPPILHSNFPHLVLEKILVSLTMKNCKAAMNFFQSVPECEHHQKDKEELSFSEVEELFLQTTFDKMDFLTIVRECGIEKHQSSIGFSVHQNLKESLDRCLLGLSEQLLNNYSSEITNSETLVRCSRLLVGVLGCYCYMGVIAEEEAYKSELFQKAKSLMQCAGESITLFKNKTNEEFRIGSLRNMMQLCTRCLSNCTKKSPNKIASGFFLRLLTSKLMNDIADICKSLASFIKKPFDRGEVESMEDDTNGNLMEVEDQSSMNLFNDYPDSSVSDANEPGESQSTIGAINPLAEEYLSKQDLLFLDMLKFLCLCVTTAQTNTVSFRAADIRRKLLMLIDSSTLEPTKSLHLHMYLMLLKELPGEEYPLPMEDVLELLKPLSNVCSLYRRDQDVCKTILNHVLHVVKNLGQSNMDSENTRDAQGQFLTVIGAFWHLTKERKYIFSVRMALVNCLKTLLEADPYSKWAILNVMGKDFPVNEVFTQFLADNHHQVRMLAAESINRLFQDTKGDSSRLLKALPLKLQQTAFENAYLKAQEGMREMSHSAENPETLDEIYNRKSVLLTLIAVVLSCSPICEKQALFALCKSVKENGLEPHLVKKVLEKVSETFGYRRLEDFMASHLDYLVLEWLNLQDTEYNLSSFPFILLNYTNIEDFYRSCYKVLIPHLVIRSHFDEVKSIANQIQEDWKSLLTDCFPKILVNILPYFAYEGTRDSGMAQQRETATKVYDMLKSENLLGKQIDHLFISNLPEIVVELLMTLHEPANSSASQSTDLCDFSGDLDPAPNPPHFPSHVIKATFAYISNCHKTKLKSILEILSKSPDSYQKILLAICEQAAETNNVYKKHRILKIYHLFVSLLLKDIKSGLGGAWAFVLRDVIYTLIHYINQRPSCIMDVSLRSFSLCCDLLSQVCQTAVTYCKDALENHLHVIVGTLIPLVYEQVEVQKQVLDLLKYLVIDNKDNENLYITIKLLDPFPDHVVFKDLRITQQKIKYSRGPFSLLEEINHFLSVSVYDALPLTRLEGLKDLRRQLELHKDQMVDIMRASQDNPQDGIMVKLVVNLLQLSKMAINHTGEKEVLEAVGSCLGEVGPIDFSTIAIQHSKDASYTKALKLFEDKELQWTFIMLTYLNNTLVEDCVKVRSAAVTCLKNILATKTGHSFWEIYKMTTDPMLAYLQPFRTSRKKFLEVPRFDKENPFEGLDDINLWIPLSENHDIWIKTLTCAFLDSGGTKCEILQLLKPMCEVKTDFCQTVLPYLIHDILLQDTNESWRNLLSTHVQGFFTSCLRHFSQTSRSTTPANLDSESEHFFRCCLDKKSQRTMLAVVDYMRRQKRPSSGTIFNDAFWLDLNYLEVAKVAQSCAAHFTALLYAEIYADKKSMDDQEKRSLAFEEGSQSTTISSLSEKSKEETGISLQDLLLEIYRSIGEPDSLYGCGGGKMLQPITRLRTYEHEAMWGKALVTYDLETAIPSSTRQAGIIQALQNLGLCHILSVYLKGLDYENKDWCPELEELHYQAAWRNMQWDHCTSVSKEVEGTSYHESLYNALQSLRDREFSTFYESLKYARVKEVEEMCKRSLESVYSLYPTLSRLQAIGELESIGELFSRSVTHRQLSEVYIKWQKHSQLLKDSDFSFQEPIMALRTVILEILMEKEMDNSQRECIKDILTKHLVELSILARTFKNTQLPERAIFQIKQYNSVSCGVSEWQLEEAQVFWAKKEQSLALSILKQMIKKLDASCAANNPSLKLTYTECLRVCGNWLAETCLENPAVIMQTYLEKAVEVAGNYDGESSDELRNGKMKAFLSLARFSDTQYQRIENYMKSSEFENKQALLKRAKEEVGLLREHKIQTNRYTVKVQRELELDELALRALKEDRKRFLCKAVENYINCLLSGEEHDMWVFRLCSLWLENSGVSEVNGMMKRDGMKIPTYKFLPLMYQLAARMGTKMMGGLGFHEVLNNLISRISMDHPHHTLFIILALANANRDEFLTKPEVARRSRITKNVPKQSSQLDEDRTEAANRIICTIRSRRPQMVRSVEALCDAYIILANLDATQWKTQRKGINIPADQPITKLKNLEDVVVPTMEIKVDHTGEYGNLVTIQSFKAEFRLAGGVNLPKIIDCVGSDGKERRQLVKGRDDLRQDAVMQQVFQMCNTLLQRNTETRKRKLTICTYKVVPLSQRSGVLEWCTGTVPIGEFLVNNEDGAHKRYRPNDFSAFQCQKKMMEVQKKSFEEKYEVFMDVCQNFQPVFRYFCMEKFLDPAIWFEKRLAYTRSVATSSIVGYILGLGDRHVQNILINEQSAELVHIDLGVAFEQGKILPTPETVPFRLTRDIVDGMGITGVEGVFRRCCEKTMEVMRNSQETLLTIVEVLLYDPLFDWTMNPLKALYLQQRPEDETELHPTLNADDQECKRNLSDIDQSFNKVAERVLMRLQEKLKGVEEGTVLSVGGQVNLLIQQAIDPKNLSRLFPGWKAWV
Description: ATM in Cell Western assay (pKAP1, etoposide-treated MCF-7 cells). Format: cell-based. To be noted: etoposide 100 μM, 1 h, pKAP1 readout. Here is the method:
ATM in Cell Western Assay:
In the morning, MCF-7 breast cancer cells were placed in a 384 well plate at the density of 10,000 cells/well (Corning, #356663), 25 μL cells per well. The following day, compounds were added to the plate using a pin tool (Echo 550) to a final concentration of 1 μM through a 3-fold serial dilution (a total of 10 doses). Then, etoposide (Sigma, #E1383) was added to a final concentration of 100 μM. The plate was incubated at 37° C. for 1 h, and the cells were fixed by the addition of 25 μL of fixing solution (8% paraformaldehyde) for 20 minutes at ambient temperature. Cells were permeabilized by 5 washes with 1×PBS (phosphate buffered saline) containing 0.1% Triton X-100; each wash was 5 minutes long. Cells were blocked by adding 50 μL of Odyssey Blocking Buffer (LI-COR, #927-40000) in 384 well plates for 1.5 hours with shaking at ambient temperature. Blocking buffer was then removed, and 20 μL of anti-pKAP1 antibody (Bethyl Laboratories, #A300-767A) (1/2000) solution were added to each well of 384-well plate. The plate was incubated overnight at 4° C. and then washed 5 times with 1×PBST (1×PBS containing 0.1% Tween-20). A secondary antibody (IRDye 800CW Goat anti-Rabbit IgG, LI-COR, #926-32211) (1/5,000) solution containing DNA stain DRAQ5 (CST, #4084L) (1/5,000) (20 μL) was added to each well in the plate, and the plate was incubated 1 hour with gentle shaking in the dark. Cells were washed 5 times with 1×PBST (1×PBS containing 0.1% Tween-20) at ambient temperature with gentle shaking in the dark. After the last wash, the wash solution was removed, the plate was inverted upside down onto a thin paper towel and centrifuged at 1000 rpm for 1 min to absorb all wash buffer. The bottom of the plate was cleaned with a moist, lint-free paper. The plate was immediately scanned using ODYSSEY CLx (LI-COR).

The next data set addresses T3, PI3Kδ (Homo sapiens, UniProt O00329).
T3 construct: purchased ThermoFisher PV6451
The experiment in a line: PI3Kδ biochemical assay (ADP-Glo). The note with it: second value of PI3K-α/δ cell; ATP 10 μM. Here is the method:
PI3Kα and PI3Kδ Biochemical Assay:
PI3K[…] and PI3K[…] Kinase reactions were performed in a 5 μL volume in low-volume 384-well plates. Typically, PerkinElmer model 6008280 plates were used. The 1× kinase reaction buffer consisted of 50 mM HEPES pH 7.5, 3 mM MgCl2, 0.03% CHAPS, 1 mM EGTA, 100 mM NaCl, and 2 mM DTT. PI3K[…] (ThermoFisher, #PV4788; the final PI3K[…] concentration: 120 ng/mL) or PI3K[…] enzyme solution (ThermoFisher, #PV6451; the final PI3K[…] concentration: 250 ng/mL) was added to the plate, compounds were serially diluted to the final maximal concentration of 100 nM (3 fold series dilution, a total of 10 doses), and the PIP2:3PS (the final concentration: 10 µg/mL) and ATP solution (the final ATP concentration: 10 μM) was added to the 384-well plate. The plate was incubated at 25° C. for 1 hour. ADP-Glo reagent buffer (5 μL) was added to each well. The plate was sealed and incubated for 40 min at 25° C. ADP-Glo detection buffer (10 μL) was added to each well, and the plate was incubated for 40 min at 25° C. and read on a plate reader configured for Luminescence.

Where “and” joins values, the source holds several entries; their conditions need not be identical. Identical values can stand only once. Counter-ions that a name gives are not always drawn. Where only a bound is given, the exact number is not on record here.

By IC50 is commonly meant the point on the concentration scale where inhibition reaches its midpoint. A lower IC50 goes with greater potency.

T1 sequence (Q12809 whole entry): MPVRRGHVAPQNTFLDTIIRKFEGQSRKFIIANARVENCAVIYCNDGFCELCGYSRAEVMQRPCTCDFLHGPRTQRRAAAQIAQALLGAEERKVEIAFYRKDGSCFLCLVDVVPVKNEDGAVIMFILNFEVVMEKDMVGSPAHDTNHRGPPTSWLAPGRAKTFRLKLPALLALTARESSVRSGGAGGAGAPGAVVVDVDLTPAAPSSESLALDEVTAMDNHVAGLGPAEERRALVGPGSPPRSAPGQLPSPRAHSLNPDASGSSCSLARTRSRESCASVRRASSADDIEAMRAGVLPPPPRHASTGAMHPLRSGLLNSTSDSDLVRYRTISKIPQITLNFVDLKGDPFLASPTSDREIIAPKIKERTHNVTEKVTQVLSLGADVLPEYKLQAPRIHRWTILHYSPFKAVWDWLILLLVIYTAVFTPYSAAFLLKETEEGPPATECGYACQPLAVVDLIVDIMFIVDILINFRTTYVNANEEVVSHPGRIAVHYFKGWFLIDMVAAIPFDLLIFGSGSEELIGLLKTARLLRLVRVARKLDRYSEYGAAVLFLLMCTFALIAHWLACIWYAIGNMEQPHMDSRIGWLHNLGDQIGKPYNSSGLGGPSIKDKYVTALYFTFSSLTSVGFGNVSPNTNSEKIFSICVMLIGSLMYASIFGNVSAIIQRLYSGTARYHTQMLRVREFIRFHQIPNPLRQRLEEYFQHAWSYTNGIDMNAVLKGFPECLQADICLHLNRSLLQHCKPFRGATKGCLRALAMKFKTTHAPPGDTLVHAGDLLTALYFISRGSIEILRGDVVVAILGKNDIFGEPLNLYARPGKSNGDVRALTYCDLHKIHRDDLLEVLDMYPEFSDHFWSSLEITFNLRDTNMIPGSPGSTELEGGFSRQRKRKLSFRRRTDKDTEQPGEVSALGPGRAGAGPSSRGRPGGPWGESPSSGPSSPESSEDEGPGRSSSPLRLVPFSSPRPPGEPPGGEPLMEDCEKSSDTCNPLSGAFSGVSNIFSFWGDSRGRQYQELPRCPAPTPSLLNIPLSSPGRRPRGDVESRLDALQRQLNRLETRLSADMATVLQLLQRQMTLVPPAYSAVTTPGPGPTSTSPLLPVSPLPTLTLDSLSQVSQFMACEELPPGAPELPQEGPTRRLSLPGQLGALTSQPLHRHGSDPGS

On to `CC(C)NCCOc1ncc(-c2cc3c4c(cnc3cc2F)N(C)C(=O)C42CCC2)cc1NS(C)(=O)=O` [Compound 569, N-(5-(7′-Fluoro-3′-methyl-2′-oxo-2′,3′-dihydrospiro[cyclobutane-1,1′-pyrrolo[2,3-c]quinolin]-8′-yl)-2-(2-(isopropylamino)ethoxy)pyridin-3-yl)methanesulfonamide], for which the IC50 against hERG (human, hERG-T-REx HEK 293 cells expressing hERG, pH 7.35, tail current) is > 30000 nM; against ATM, 2.43 nM; against PI3Kδ it was 73 nM.

With `CC(C)NCCOc1ncc(-c2cc3c(cc2F)ncc2c3[C@]3(C[C@H](OCc4ccccc4)C3)C(=O)N2C)cc1NS(C)(=O)=O` [Compound 572, cis-N-(5-(3-(Benzyloxy)-7′-fluoro-3′-methyl-2′-oxo-2′,3′-dihydrospiro[cyclobutane-1,1′-pyrrolo[2,3-c]quinolin]-8′-yl)-2-(2-(isopropylamino)ethoxy)pyridin-3-yl)methanesulfonamide], the concentration for half-maximal inhibition (IC50) at hERG (tail current) amounted to 7500 nM; at ATM, 1.05 nM; at PI3Kδ, 15 nM.

For `CC(C)NCCOc1ncc(-c2cc3c4c(cnc3cc2F)N(C)C(=O)C42CN(C(C)C)C2)cc1NS(C)(=O)=O` [Compound 571, N-(5-(7′-Fluoro-1-isopropyl-3′-methyl-2′-oxo-2′,3′-dihydrospiro[azetidine-3,1′-pyrrolo[2,3-c]quinolin]-8′-yl)-2-(2-(isopropylamino)ethoxy)pyridin-3-yl)methanesulfonamide], the half-inhibitory concentration (IC50) against hERG (tail current) was 5600 nM; against ATM, 5.76 nM and 5.51 nM.

Consider `CC[C@H]1C[C@@]2(C1)C(=O)N(C)c1cnc3cc(F)c(-c4cnc(OCCNC(C)C)c(NS(C)(=O)=O)c4)cc3c12` [Compound 566, trans-N-(5-(3-Ethyl-7′-fluoro-3′-methyl-2′-oxo-2′,3′-dihydrospiro[cyclobutane-1,1′-pyrrolo[2,3-c]quinolin]-8′-yl)-2-(2-(isopropylamino)ethoxy)pyridin-3-yl)methanesulfonamide], for which the half-maximal inhibitory concentration (IC50) was found to be 2100 nM on hERG (tail current), 6.72 nM on ATM and 14 nM at PI3Kδ.

On to `CCS(=O)(=O)Nc1cc(-c2cc3c4c(cnc3cc2F)N(C)C(=O)C42CCC2)cnc1OCCNC(C)C` [Compound 570, N-(5-(7′-Fluoro-3′-methyl-2′-oxo-2′,3′-dihydrospiro[cyclobutane-1,1′-pyrrolo[2,3-c]quinolin]-8′-yl)-2-(2-(isopropylamino)ethoxy)pyridin-3-yl)ethanesulfonamide], for which the 50% inhibitory concentration (IC50) was found to be 10500 nM against hERG (tail current), 3.6 nM at ATM and 55 nM on PI3Kδ.

On to `CC(C)NCCOc1ncc(-c2cc3c(cc2F)ncc2c3[C@]3(C[C@@H](OCc4ccccc4)C3)C(=O)N2C)cc1NS(C)(=O)=O` [Compound 567, trans-N-(5-(3-(Benzyloxy)-7′-fluoro-3′-methyl-2′-oxo-2′,3′-dihydrospiro[cyclobutane-1,1′-pyrrolo[2,3-c]quinolin]-8′-yl)-2-(2-(isopropylamino)ethoxy)pyridin-3-yl)methanesulfonamide], for which the IC50 against hERG (tail current) was 5500 nM; at ATM it was 11 nM; against PI3Kδ it was > 100 nM.

Consider `CC[C@H]1C[C@]2(C1)C(=O)N(C)c1cnc3cc(F)c(-c4cnc(OCCNC(C)C)c(NS(C)(=O)=O)c4)cc3c12` [Compound 573, cis-N-(5-(3-Ethyl-7′-fluoro-3′-methyl-2′-oxo-2′,3′-dihydrospiro[cyclobutane-1,1′-pyrrolo[2,3-c]quinolin]-8′-yl)-2-(2-(isopropylamino)ethoxy)pyridin-3-yl)methanesulfonamide], for which the IC50 on hERG (tail current) turned out to be 3000 nM; against ATM, 0.92 nM; at PI3Kδ, 12 nM.

On to `CN1C(=O)C2(CCC2)c2c1cnc1ccc(-c3cnc(N4CC(N(C)C)C4)c(NS(C)(=O)=O)c3)cc21` [Compound 574, N-(2-(3-(Dimethylamino)azetidin-1-yl)-5-(3′-methyl-2′-oxo-2′,3′-dihydrospiro[cyclobutane-1,1′-pyrrolo[2,3-c]quinolin]-8′-yl)pyridin-3-yl)methanesulfonamide hydrochloride], for which the IC50 is > 30000 nM against hERG (tail current), 1.52 nM against ATM and 3 nM against PI3Kδ.

Regarding `CC(C)NCCOc1ncc(-c2cc3c4c(cnc3cc2F)N(C)C(=O)C42CCC2)cc1NS(=O)(=O)C(C)C` [Compound 568, N-(5-(7′-Fluoro-3′-methyl-2′-oxo-2′,3′-dihydrospiro[cyclobutane-1,1′-pyrrolo[2,3-c]quinolin]-8′-yl)-2-(2-(isopropylamino)ethoxy)pyridin-3-yl)propane-2-sulfonamide], the IC50 worked out at 14000 nM on hERG (tail current), 2.88 nM against ATM and 54 nM at PI3Kδ.

The values are drawn from patent US20220142995A1, “DUAL ATM AND DNA-PK INHIBITORS FOR USE IN ANTI-TUMOR THERAPY” (XRAD Therapeutics, Inc., priority 2019, published 2022).
